Measurements as given in patent publication EP4707284A1, “HETEROCYCLIC COMPOUND AND USE THEREOF” (Otsuka Pharmaceutical Co., Ltd., priority 2023, dated 2024).

Format: physicochemical
Details: Tris-hydrochloric acid buffer (pH 7.5) 50 mmol/L, magnesium chloride 5 mmol/L, evaluation compound 1 µmol/L, 37°C, 60 minutes, average of duplicate
Protocol: The conversion from the evaluation compounds to brexpiprazole in a buffer (i.e., the stability of the evaluation compounds) was evaluated.
The Example 1 compound was dissolved in acetonitrile/water (1:1, v/v) to 10 mmol/L and further diluted with acetonitrile/water (1:1, v/v) to 100 µmol/L for use.
The other Example compounds and the Reference Example 5 compound to Reference Example 7 compound were each dissolved in DMSO to 10 mmol/L and further diluted with acetonitrile to 100 µmol/L for use, except for the following compounds.
The compounds of Examples 52, 95, 96, 117, and 130 (EX 52, EX 95, EX 96, EX 117, and EX 130) were dissolved in acetonitrile/water (8:2, v/v) to 10 mmol/L and further diluted with acetonitrile to 100 µmol/L for use.
The compound of Example 97 (EX 97) was dissolved in acetonitrile/water (8:2, v/v) to 10 mmol/L and further diluted with acetonitrile/water (8:2, v/v) to 100 µmol/L for use.
The compounds of Examples 15 and 116 (EX 15 and EX 116) were dissolved in DMSO to 1 mmol/L and further diluted with acetonitrile to 100 µmol/L for use.
These evaluation compound solutions were prepared at the time of use.
The reaction was conducted by preparing each reaction solution such that the final concentration of each component was as follows. The test was conducted in duplicate.
For the compounds of Examples 1 to 8, 10 to 19, 26 to 27, 37, 50, 87 to 89, 91, 116, 121, 123, 150, and 151 (EX 1 to EX 8, EX 10 to EX 19, EX 26 to EX 27, EX 37, EX 50, EX 87 to EX 89, EX 91, EX 116, EX 121, EX 123, EX 150, and EX 151), and the compounds of Reference Examples 5 to 7 (REX 5 to REX 7), the reaction solution without the evaluation compound (198 µl) was pre-incubated at 37°C for 3 minutes, and then each of the evaluation compound solutions (2 µl) was added and stirred; thereafter, the reaction was started at 37°C. At 0 minutes or 60 minutes after the start of the reaction, the reaction was stopped by adding and stirring a reaction stop solution (1000 µl) composed of acetonitrile/isopropanol (4:1, v/v) containing internal standard substances. However, the 0-minute reaction sample (198 µl) was prepared by adding the evaluation compound (2 µl) after adding the reaction stop solution (1000 µl). The samples after stopping the reaction were used as the measurement samples. Calibration curve samples with the same composition were prepared (final concentrations of the evaluation compounds and brexpiprazole: 0.01, 0.1, and 1 µmol/L, with the proviso that for the evaluation compounds only, the 0-minute reaction samples were also used as calibration curve samples for 1 µmol/L).
For the compounds of Examples 24 to 25, 28 to 29, 32 to 36, 40 to 49, 51 to 60, 62 to 64, 66 to 77, 80 to 86, 90, 92 to 111, 113, 115, 117 to 120, 122, 124 to 130, 132 to 147, and 152 to 160 (EX 24 to EX 25, EX 28 to EX 29, EX 32 to EX 36, EX 40 to EX 49, EX 51 to EX 60, EX 62 to EX 64, EX 66 to EX 77, EX 80 to EX 86, EX 90, EX 92 to EX 111, EX 113, EX 115, EX 117 to EX 120, EX 122, EX 124 to EX 130, EX 132 to EX 147, and EX 152 to EX 160), the reaction solution without the evaluation compound (148.5 µl) was pre-incubated at 37°C for 3 minutes, and then each of the evaluation compound solutions (1.5 µl) was added and stirred; thereafter, the reaction was started at 37°C. At 0 minutes or 60 minutes after the start of the reaction, the reaction was stopped by adding and stirring a reaction stop solution (600 µl) composed of acetonitrile/isopropanol (4:1, v/v) containing internal standard substances. However, the 0-minute reaction sample (148.5 µl) was prepared by adding the evaluation compound (1.5 µl) after adding the reaction stop solution (600 µl). The samples after stopping the reaction were used as the measurement samples. […]

Structure (SMILES) | Concentration of brexpiprazole formed [nM] | Concentration of evaluation compound decreased [nM]
O=C(O)CCCC(=O)OCOP(=O)([O-])OC[N+]1(CCCCOc2ccc3ccc(=O)[nH]c3c2)CCN(c2cccc3sccc23)CC1 [EX 70] | 0 | 0
CC(C)(CC(=O)O)CC(=O)OCOP(=O)([O-])OC[N+]1(CCCCOc2ccc3ccc(=O)[nH]c3c2)CCN(c2cccc3sccc23)CC1 [EX 71] | 0 | 100
COc1ccc(COC(=O)CC(C)(C)CC(=O)OCOP(=O)([O-])OC[N+]2(CCCCOc3ccc4ccc(=O)[nH]c4c3)CCN(c3cccc4sccc34)CC2)cc1 [EX 72] | 0 | 150
CC(C)NC(=O)CCCC(=O)OCOP(=O)([O-])OC[N+]1(CCCCOc2ccc3ccc(=O)[nH]c3c2)CCN(c2cccc3sccc23)CC1 [EX 73] | 0 | 130
CC1(C)OCC(NC(=O)CCCC(=O)OCOP(=O)([O-])OC[N+]2(CCCCOc3ccc4ccc(=O)[nH]c4c3)CCN(c3cccc4sccc34)CC2)CO1 [EX 74] | 0 | 50
CC1(C)OCC(COC(=O)CCCCC(=O)OCOP(=O)([O-])OC[N+]2(CCCCOc3ccc4ccc(=O)[nH]c4c3)CCN(c3cccc4sccc34)CC2)CO1 [EX 75] | 0 | 70
CC(C)NC(=O)CCCCCCCCC(=O)OCOP(=O)([O-])OC[N+]1(CCCCOc2ccc3ccc(=O)[nH]c3c2)CCN(c2cccc3sccc23)CC1 [EX 76] | 0 | 0
COCCOC(=O)CCCCCCCCCCC(=O)OCOP(=O)([O-])OC[N+]1(CCCCOc2ccc3ccc(=O)[nH]c3c2)CCN(c2cccc3sccc23)CC1 [EX 77] | 0 | 110
CC(=O)Oc1ccccc1C(=O)OCOP(=O)([O-])OC[N+]1(CCCCOc2ccc3ccc(=O)[nH]c3c2)CCN(c2cccc3sccc23)CC1 [EX 80] | 0 | 170
Cc1ncccc1C(=O)OCOP(=O)([O-])OC[N+]1(CCCCOc2ccc3ccc(=O)[nH]c3c2)CCN(c2cccc3sccc23)CC1 [EX 81] | 0 | -30
COC(=O)[C@H](COP(=O)([O-])OC[N+]1(CCCCOc2ccc3ccc(=O)[nH]c3c2)CCN(c2cccc3sccc23)CC1)NC(=O)OC(C)(C)C [EX 83] | 0 | 70
O=c1ccc2ccc(OCCCC[N+]3(COP(=O)([O-])OCCCOc4ccccc4)CCN(c4cccc5sccc45)CC3)cc2[nH]1 [EX 84] | 0 | 10
O=C(OCCCCCCOP(=O)([O-])OC[N+]1(CCCCOc2ccc3ccc(=O)[nH]c3c2)CCN(c2cccc3sccc23)CC1)c1ccc([N+](=O)[O-])cc1 [EX 85] | 0 | 40
O=c1ccc2ccc(OCCCC[N+]3(COP(=O)([O-])OC[C@H]4CC[C@H](CO)CC4)CCN(c4cccc5sccc45)CC3)cc2[nH]1 [EX 86] | 0 | 50
COP(=O)([O-])OC[N+]1(CCCCOc2ccc3ccc(=O)[nH]c3c2)CCN(c2cccc3sccc23)CC1 [EX 87] | 0 | 0
CCCOP(=O)([O-])OC[N+]1(CCCCOc2ccc3ccc(=O)[nH]c3c2)CCN(c2cccc3sccc23)CC1 [EX 88] | 0 | -10
CCCCOP(=O)([O-])OC[N+]1(CCCCOc2ccc3ccc(=O)[nH]c3c2)CCN(c2cccc3sccc23)CC1 [EX 89] | 0 | -70
CC(C)COP(=O)([O-])OC[N+]1(CCCCOc2ccc3ccc(=O)[nH]c3c2)CCN(c2cccc3sccc23)CC1 [EX 90] | 0 | -30
O=c1ccc2ccc(OCCCC[N+]3(COP(=O)([O-])OCC4CC4)CCN(c4cccc5sccc45)CC3)cc2[nH]1 [EX 91] | 0 | 120
O=c1ccc2ccc(OCCCC[N+]3(COP(=O)([O-])OCCCCCO)CCN(c4cccc5sccc45)CC3)cc2[nH]1 [EX 92] | 0 | 110
O=c1ccc2ccc(OCCCC[N+]3(COP(=O)([O-])OCCOCCO)CCN(c4cccc5sccc45)CC3)cc2[nH]1 [EX 93] | 0 | -10
CCOCCOP(=O)([O-])OC[N+]1(CCCCOc2ccc3ccc(=O)[nH]c3c2)CCN(c2cccc3sccc23)CC1 [EX 94] | 0 | -70
CCCOCCOP(=O)([O-])OC[N+]1(CCCCOc2ccc3ccc(=O)[nH]c3c2)CCN(c2cccc3sccc23)CC1 [EX 95] | 0 | -10
CCCCOCCOP(=O)([O-])OC[N+]1(CCCCOc2ccc3ccc(=O)[nH]c3c2)CCN(c2cccc3sccc23)CC1 [EX 96] | 0 | 30
CCOCCCOP(=O)([O-])OC[N+]1(CCCCOc2ccc3ccc(=O)[nH]c3c2)CCN(c2cccc3sccc23)CC1 [EX 97] | 0 | 90
CCOCCOCCOP(=O)([O-])OC[N+]1(CCCCOc2ccc3ccc(=O)[nH]c3c2)CCN(c2cccc3sccc23)CC1 [EX 98] | 0 | -20
CC1(C)O[C@H]2[C@@H](O1)[C@@H](COP(=O)([O-])OC[N+]1(CCCCOc3ccc4ccc(=O)[nH]c4c3)CCN(c3cccc4sccc34)CC1)O[C@@H]1OC(C)(C)O[C@@H]12 [EX 100] | 0 | 50
CC(=O)OCCCCCCOP(=O)([O-])OC[N+]1(CCCCOc2ccc3ccc(=O)[nH]c3c2)CCN(c2cccc3sccc23)CC1 [EX 101] | 0 | 80
